Results reported in patent US20240100178A1, “EGFR TARGETING PEPTIDE CONJUGATE” (Chapman University, priority 2022, published 2024).
Where a SMILES comes first, the peptide text is derived from it. The star is where a group is joined. X1 = COc1cccc2c1C(=O)c1c(O)c3c(c(O)c1C2=O)C[C@@](O)(C(=O)CO)C[C@@H]3O[C@H]1C[C@H](NC(=O)C2CCC(CN3C(=O)CC(*)C3=O)CC2)[C@H](O)[C@H](C)O1

How the values were obtained:
MCF-10A = assay: Cytotoxicity MTT/MTS assay, MCF-10A; format: cell-based; details: MCF-10A non-cancerous mammary epithelial cells; highest tested concentration 25 μM
Excerpt: (§1) FIG. 4A-C depicts the cytotoxicity of PDoxC, obtained by […], for three cell lines (MDA-MB-231 [FIG. 4A], MDA-MB-468 [FIG. 4B], and MCF-10A [FIG. 4C]). Cell viability is plotted against drug concentration (PDoxC or Dox) to obtain IC50 values. Each experimental point was done in duplicates or triplicates and the experiment was repeated once.
(§2) Next, the cytotoxicity of the peptide 31 PDoxC was compared to the DOX (free drug) using MTS assay (FIG. 4A-C). Three cell lines were used, two TNBC cell lines (MDA-MB-231 and MDA-MB-468) and one non-cancerous mammary epithelial MCF-10A cell line. […] This peptide 31 PDoxC is very promising as this level of selectivity has never been observed with previously reported peptide-drug conjugates.

MDA-MB-468 = assay: Cytotoxicity MTT/MTS assay, MDA-MB-468; format: cell-based; details: MDA-MB-468 (TNBC) cells
Excerpt: as §1, §2

[1] = Stability of peptide GE11 in human serum at 37° C. (RP-HPLC); format: in vitro ADME
Method: Peptide was incubated with human serum at 37° C., and aliquots were removed at different time intervals for HPLC analysis.
Peptides show low proteolytic stability when administered systemically and must be stabilized for clinical application. […] The three N-terminal amino acids (1Y, 2H, 3W) were cleaved sequentially by proteolysis, giving three fragments (A, B, and C, Table 2)) that appear in the HPLC chromatograms. […] Therefore, blocking the N-terminus of the peptide with a chemotherapeutic drug yields a stable conjugate.

[2] = Stability of PDoxC in mouse serum at 37° C. (RP-HPLC); format: in vitro ADME; details: HPLC peak AUC
Method: (§3) FIG. 3 depicts the stability of the PDoxC in the presence of human or mouse serum at 37° C. The PDoxC was incubated with human or mouse serum and aliquots were removed at different time intervals for HPLC analysis. The AUC for PDoxC peak was used to calculate the percent intact at different time points.
(§4) The stability of the peptide 31 PDoxC was evaluated by incubating it with human or mouse serum at 37° C. (FIG. 3). Aliquots were removed at regular intervals to analyze the PDoxC using RP-HPLC.

[3] = Stability of PDoxC in human serum at 37° C. (RP-HPLC); format: in vitro ADME; details: HPLC peak AUC
Method: as §3, §4

MDA-MB-231 = assay: Cytotoxicity MTT/MTS assay, MDA-MB-231; format: cell-based; details: MDA-MB-231 (TNBC) cells
Excerpt: as §1, §2

[4] = test system: EGFR expressing TNBC cells (MDA-MB-231 and MDA-MB-468); assay: Peptide uptake by EGFR expressing TNBC cells; format: cell-based
Excerpt: (§5) The specific binding and uptake of peptide 22 (FITC labeled peptide) by EGFR in TNBC cells was confirmed by competition assay using flow cytometry.

[5] = test system: noncancerous mammary epithelial cells (MCF-10A and MCF12A); assay: Peptide uptake by noncancerous mammary epithelial cells; format: cell-based
EGFR in MDA-MB-231 cells = assay: EGF competition assay of FITC labeled peptide uptake by flow cytometry; format: cell-based
Excerpt: as §5

[6] = test system: TNBC cells (MDA-MB-468, 231, and 436); assay: SPOT peptide array library screen for binding to TNBC cells versus normal breast cells; format: cell-based; details: peptide array incubated with TNBC cells (MDA-MB-468, 231, 436) or normal breast cells (MCF-10A, 12A); relative to lead GE11
Method: A library of 30 peptide sequences (in duplicates, total 60 peptides) was synthesized in an array format on functionalized cellulose membrane using SPOT synthesis. The peptide library was screened for identifying EGFR binding peptide in TNBC cells by incubating the library with TNBC cells (MDA-MB-468, 231, and 436) or normal breast (MCF-10A and 12A) cells.

[7] = molecular target: T1, epidermal growth factor receptor (EGFR) on TNBC cells (UniProt P00533 25-1210, limits assumed); assay: SPOT peptide array on cellulose membrane incubated with TNBC cells (MDA-MB-468, 231, 436) or normal breast cells
T1 construct: whole, on cells; also called ErbB1

COc1cccc2c1C(=O)c1c(O)c3c(c(O)c1C2=O)C[C@@](O)(C(=O)CO)C[C@@H]3O[C@H]1C[C@H](N)[C@H](O)[C@H](C)O1 [Free Dox, doxorubicin, reference compound]
IC50 (MCF-10A): 1410 nM
IC50 (MDA-MB-468): 570 nM

CC[C@H](C)[C@H](NC(=O)[C@@H](NC(=O)[C@H](CC(N)=O)NC(=O)[C@H](CCC(N)=O)NC(=O)[C@@H]1CCCN1C(=O)[C@@H](NC(=O)[C@H](Cc1ccc(O)cc1)NC(=O)CNC(=O)[C@H](Cc1ccc(O)cc1)NC(=O)[C@H](Cc1c[nH]c2ccccc12)NC(=O)[C@H](Cc1c[nH]cn1)NC(=O)[C@@H](N)Cc1ccc(O)cc1)[C@@H](C)O)C(C)C)C(=O)O [GE11]
% Intact GE11 ([1]; 0 h): 100%
remaining at 1 h ([1]; 1 h): 49%
remaining at 3 h ([1]; 3 h): 18%
% Intact GE11 ([1]; 7 h): 2%
remaining at 7 h ([1]; 7 h): 2%

CC[C@H](C)[C@H](NC(=O)[C@@H](NC(=O)[C@H](CCCNC(=N)N)NC(=O)[C@H](CCC(=O)O)NC(=O)[C@@H]1CCCN1C(=O)[C@@H](NC(=O)[C@H](Cc1ccc(O)cc1)NC(=O)CNC(=O)[C@H](Cc1ccc(O)cc1)NC(=O)[C@H](Cc1c[nH]c2ccccc12)NC(=O)[C@H](Cc1c[nH]cn1)NC(=O)[C@H](Cc1ccc(O)cc1)NC(=O)[C@@H](N)CSC1CC(=O)N(CC2CCC(C(=O)N[C@H]3C[C@H](O[C@H]4C[C@](O)(C(=O)CO)Cc5c(O)c6c(c(O)c54)C(=O)c4c(OC)cccc4C6=O)O[C@@H](C)[C@H]3O)CC2)C1=O)[C@@H](C)O)C(C)C)C(=O)O (some centres unmarked) [PDoxC] (H-C(X1)YHWYGYTPERVI-OH; N-terminus and C-terminus assumed)
half-life [2]: 4 h
half-life [3]: 12.7 h
IC50 (MDA-MB-231): 2370 ± 550 nM
IC50 ± SD (MCF-10A): no toxicity
IC50 (MDA-MB-468): 2750 ± 570 nM

YHWYGYTPENVI [Peptide 22, used FITC labeled in uptake assays]
uptake by EGFR expressing TNBC cells compared to the lead GE11 [4]: 47-123 fold
uptake by noncancerous mammary epithelial cells [5]: minimal uptake
FITC-positive MDA-MB-231 cells (EGFR in MDA-MB-231 cells; FITC labeled peptide alone, without excess EGF): 99%
FITC-positive MDA-MB-231 cells (EGFR in MDA-MB-231 cells; FITC labeled peptide in the presence of excess EGF protein): 2%
specific affinity for TNBC cells [6]: higher specific affinity

YHWYGYTPKNVI [Peptide 26]
specific affinity for TNBC cells [6]: higher specific affinity

YHWYGYTPQDVI [Peptide 23]
specific affinity for TNBC cells [6]: higher specific affinity

YHWYGYTPQKVI [Peptide 27]
specific affinity for TNBC cells [6]: higher specific affinity

B1: peptide 23 (peptide)
peptide: YHWYGYTPQDVI
modifications: made on a cellulose membrane by SPOT synthesis in the library screen
binding result [7]: binds

B2: peptide 27 (peptide)
peptide: YHWYGYTPQKVI
modifications: made on a cellulose membrane by SPOT synthesis in the library screen
notes: 12-mer derived from GE11 (N10K)
binding result [7]: binds

B3: peptide 26 (peptide)
peptide: YHWYGYTPKNVI
modifications: made on a cellulose membrane by SPOT synthesis in the library screen
binding result [7]: binds
